Experimental data as given in ChEMBL document CHEMBL3991601, “The target landscape of clinical kinase drugs” (Science, 2017).
The source made the active and inactive calls. Cut-off read from the data, not from the text of the source, for most assays here: actives have a measured Kd and inactives only a lower limit.

What was measured:
[1] = molecular target: RAC-alpha serine/threonine-protein kinase (Homo sapiens, UniProt P31749)
[2] = molecular target: T1, Discoidin domain-containing receptor 2 (Homo sapiens, UniProt Q16832)
T1 sequence (Q16832 whole entry): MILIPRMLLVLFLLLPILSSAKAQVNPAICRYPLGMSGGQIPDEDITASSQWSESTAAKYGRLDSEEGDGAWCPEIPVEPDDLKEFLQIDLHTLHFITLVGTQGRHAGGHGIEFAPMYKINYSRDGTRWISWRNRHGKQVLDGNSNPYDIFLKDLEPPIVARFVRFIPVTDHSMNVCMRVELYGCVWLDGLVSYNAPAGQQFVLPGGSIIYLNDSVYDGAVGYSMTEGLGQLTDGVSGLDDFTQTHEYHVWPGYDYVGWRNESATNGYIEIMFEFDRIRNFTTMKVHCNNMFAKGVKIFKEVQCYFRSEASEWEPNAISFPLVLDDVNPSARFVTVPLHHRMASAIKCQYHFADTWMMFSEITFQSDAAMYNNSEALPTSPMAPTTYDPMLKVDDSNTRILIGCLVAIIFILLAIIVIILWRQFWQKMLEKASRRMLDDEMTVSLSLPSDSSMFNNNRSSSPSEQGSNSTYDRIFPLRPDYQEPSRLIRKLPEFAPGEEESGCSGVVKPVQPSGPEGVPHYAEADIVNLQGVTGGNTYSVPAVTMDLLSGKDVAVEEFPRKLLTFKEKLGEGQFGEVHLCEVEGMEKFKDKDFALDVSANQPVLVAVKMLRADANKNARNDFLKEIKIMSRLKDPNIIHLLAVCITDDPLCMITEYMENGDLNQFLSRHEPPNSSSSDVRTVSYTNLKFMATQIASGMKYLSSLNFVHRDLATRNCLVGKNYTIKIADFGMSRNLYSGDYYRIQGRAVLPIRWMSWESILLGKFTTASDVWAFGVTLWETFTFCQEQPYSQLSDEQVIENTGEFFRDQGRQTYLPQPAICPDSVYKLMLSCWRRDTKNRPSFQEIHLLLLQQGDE

[3] = molecular target: Tyrosine-protein kinase Lck (Homo sapiens, UniProt P06239)
Chain of Tyrosine-protein kinase Lck (P06239 whole entry, the tested form may be a part): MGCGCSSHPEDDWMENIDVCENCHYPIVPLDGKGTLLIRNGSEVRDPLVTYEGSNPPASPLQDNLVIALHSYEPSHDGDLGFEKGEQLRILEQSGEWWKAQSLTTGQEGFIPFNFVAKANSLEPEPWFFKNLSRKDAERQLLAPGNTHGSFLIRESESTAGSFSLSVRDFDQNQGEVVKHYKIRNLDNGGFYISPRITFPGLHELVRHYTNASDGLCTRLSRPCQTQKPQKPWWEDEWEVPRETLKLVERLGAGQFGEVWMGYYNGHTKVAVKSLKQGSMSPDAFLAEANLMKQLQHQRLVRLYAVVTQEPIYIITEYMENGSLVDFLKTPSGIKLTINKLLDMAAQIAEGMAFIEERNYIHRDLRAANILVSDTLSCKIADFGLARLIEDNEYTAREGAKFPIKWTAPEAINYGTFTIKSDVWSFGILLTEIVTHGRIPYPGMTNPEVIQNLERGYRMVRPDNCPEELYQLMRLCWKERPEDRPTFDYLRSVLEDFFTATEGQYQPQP

[4] = molecular target: LIM domain kinase 1 (Homo sapiens, UniProt P53667)
Chain of LIM domain kinase 1 (P53667 whole entry, the tested form may be a part): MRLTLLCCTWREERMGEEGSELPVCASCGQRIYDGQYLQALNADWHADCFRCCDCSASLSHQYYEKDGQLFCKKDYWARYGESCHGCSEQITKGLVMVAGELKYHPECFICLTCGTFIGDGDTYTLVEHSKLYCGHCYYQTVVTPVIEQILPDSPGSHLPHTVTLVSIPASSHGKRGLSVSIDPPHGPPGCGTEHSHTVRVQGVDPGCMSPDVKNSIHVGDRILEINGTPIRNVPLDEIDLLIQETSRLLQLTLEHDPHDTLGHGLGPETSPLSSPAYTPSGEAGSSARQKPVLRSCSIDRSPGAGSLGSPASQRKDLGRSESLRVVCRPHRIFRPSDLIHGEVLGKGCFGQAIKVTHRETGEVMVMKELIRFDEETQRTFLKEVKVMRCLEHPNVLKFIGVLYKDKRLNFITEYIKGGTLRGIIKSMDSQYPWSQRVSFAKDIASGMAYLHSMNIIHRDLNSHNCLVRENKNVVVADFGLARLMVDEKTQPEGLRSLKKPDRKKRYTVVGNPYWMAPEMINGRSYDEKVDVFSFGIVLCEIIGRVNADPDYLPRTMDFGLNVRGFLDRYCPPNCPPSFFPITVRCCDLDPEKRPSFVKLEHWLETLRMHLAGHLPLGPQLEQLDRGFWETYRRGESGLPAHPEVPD

[5] = molecular target: T2, Dual specificity mitogen-activated protein kinase kinase 5 (Homo sapiens, UniProt Q13163)
T2 sequence (Q13163 whole entry): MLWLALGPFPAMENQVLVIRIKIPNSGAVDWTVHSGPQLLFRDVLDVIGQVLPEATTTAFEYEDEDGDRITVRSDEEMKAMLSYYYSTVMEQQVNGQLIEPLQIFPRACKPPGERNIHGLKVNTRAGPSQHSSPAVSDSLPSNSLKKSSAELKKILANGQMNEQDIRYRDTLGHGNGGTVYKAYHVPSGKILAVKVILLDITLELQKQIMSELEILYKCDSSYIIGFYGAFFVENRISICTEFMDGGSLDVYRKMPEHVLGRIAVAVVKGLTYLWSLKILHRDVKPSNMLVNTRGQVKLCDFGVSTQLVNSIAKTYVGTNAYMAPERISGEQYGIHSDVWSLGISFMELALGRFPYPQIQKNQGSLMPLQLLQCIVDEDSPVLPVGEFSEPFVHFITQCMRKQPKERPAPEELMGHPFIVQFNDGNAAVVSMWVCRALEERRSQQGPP

[6] = molecular target: Protein-tyrosine kinase 6 (Homo sapiens, UniProt Q13882)
Chain of Protein-tyrosine kinase 6 (Q13882 whole entry): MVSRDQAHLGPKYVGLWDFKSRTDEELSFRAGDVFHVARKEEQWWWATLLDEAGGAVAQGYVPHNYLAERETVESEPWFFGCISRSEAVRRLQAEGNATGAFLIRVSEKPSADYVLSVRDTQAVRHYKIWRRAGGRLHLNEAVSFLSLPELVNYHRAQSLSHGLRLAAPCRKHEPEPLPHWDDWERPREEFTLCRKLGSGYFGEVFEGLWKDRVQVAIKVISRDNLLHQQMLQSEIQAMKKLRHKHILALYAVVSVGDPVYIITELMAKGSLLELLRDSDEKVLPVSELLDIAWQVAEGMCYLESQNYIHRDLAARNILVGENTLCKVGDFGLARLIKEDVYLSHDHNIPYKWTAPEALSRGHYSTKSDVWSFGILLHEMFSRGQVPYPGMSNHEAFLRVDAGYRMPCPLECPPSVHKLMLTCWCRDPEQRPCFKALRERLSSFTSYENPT

[7] = molecular target: T3, Ras-related protein Rab-10 (Homo sapiens, UniProt P61026)
T3 sequence (P61026 whole entry): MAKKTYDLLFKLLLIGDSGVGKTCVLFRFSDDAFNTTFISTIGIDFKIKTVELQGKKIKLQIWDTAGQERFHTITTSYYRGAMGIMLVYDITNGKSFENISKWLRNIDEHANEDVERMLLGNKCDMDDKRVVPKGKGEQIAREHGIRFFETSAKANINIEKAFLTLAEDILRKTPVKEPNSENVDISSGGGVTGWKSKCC

[8] = molecular target: T4, Serine/threonine-protein kinase 4 (Homo sapiens, UniProt Q13043)
T4 sequence (Q13043 whole entry): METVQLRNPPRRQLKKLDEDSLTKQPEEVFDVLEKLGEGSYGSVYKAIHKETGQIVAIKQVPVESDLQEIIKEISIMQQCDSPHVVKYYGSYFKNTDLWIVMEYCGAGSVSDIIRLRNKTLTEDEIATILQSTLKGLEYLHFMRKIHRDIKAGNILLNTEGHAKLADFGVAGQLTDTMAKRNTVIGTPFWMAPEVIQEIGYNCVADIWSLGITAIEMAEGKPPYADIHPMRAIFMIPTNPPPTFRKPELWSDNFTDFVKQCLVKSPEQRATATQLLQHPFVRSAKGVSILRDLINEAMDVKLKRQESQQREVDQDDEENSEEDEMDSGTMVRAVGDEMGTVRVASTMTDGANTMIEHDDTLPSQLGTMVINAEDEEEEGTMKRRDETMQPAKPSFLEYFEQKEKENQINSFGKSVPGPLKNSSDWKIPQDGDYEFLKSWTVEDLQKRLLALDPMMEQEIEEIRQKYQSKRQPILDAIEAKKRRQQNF

[9] = molecular target: T5, Non-receptor tyrosine-protein kinase TNK1 (Homo sapiens, UniProt Q13470)
T5 sequence (Q13470 whole entry): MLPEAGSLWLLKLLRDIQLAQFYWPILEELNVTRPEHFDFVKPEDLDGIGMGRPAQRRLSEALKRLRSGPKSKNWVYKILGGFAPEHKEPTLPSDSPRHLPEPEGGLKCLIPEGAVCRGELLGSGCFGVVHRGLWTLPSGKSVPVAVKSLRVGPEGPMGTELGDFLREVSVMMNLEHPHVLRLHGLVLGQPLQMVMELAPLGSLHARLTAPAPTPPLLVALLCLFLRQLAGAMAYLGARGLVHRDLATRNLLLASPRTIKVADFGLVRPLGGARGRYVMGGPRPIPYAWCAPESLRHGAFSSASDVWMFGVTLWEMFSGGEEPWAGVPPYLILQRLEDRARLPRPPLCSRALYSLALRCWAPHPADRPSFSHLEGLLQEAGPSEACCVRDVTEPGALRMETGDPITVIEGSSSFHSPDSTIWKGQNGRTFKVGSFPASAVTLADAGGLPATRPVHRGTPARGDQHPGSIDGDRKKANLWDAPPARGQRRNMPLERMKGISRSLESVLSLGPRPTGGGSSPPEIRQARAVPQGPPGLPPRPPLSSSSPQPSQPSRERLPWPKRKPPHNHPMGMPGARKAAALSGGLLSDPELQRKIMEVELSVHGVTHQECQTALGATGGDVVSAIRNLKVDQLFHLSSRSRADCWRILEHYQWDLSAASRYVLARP

[10] = molecular target: Tyrosine-protein kinase Yes (Homo sapiens, UniProt P07947)
Chain of Tyrosine-protein kinase Yes (P07947 whole entry): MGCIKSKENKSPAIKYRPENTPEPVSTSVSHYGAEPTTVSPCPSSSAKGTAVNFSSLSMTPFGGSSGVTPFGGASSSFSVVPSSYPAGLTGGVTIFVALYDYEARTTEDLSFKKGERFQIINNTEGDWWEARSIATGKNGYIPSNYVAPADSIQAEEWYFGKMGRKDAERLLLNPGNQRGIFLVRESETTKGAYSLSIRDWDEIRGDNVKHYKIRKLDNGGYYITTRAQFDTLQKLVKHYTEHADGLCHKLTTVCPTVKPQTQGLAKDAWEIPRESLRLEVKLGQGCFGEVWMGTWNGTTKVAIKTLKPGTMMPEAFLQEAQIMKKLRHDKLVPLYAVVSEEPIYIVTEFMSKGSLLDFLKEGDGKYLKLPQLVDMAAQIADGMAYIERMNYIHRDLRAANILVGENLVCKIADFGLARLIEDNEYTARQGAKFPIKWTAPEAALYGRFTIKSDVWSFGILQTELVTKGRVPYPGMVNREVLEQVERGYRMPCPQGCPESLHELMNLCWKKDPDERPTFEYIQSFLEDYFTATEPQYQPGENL
Note: in the data inactive means no Kd found up to 30 µM.

Chain of RAC-alpha serine/threonine-protein kinase (P31749 whole entry, the tested form may be a part): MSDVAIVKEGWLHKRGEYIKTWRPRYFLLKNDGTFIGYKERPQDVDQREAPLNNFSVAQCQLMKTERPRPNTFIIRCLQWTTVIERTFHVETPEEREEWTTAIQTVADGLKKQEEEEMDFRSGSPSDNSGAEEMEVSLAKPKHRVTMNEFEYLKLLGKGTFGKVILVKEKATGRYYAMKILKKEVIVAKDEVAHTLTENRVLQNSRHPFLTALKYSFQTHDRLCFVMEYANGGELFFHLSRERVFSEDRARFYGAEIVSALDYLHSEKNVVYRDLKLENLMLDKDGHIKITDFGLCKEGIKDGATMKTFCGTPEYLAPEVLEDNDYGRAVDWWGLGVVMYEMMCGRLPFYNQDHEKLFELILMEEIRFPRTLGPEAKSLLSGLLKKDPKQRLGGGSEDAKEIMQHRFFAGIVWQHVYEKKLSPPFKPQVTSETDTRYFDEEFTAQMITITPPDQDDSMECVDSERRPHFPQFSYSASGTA

| Kd [1] | Kd [2] | Kd [3] | Kd [4] | Kd [5] | Kd [6] | Kd [7] | Kd [8] | Kd [9] | Kd [10] | SMILES |
| --- | --- | --- | --- | --- | --- | --- | --- | --- | --- | --- |
| > 30 µM (inactive) | > 30 µM (inactive) | > 30 µM (inactive) | > 30 µM (inactive) | > 30 µM (inactive) | > 30 µM (inactive) | > 30 µM (inactive) | > 30 µM (inactive) | > 30 µM (inactive) | > 30 µM (inactive) | Cn1cc(-c2ccc3nnc(C(F)(F)c4ccc5ncccc5c4)n3n2)cn1 [JNJ-38877605] |
| > 30 µM (inactive) | > 30 µM (inactive) | > 30 µM (inactive) | > 30 µM (inactive) | > 30 µM (inactive) | > 30 µM (inactive) | > 30 µM (inactive) | > 30 µM (inactive) | > 30 µM (inactive) | > 30 µM (inactive) | Cn1cc(-c2ccc(F)c(C(F)(F)F)c2)nc1C1CCN(c2ncnc3[nH]ncc23)CC1 [LY-2584702] |
| > 30 µM (inactive) | > 30 µM (inactive) | > 30 µM (inactive) | 5.09 µM (active) | > 30 µM (inactive) | 0.841 µM (active) | > 30 µM (inactive) | 2.37 µM (active) | 0.006 µM (active) | > 30 µM (inactive) | O=C(O)[C@]1(Cc2cccc(Nc3nccs3)n2)CC[C@@H](Oc2cccc(Cl)c2F)CC1 [MK-5108] |
| > 30 µM (inactive) | > 30 µM (inactive) | > 30 µM (inactive) | > 30 µM (inactive) | > 30 µM (inactive) | > 30 µM (inactive) | > 30 µM (inactive) | > 30 µM (inactive) | > 30 µM (inactive) | > 30 µM (inactive) | CNC(=O)c1ccc(C)c(-n2c(C)cc(OCc3ccc(F)cc3F)c(Br)c2=O)c1 [PH-797804] |

Further lines, the compound ahead of its results:

| SMILES | Kd [1] | Kd [2] | Kd [3] | Kd [4] | Kd [5] | Kd [6] | Kd [7] | Kd [8] | Kd [9] | Kd [10] |
| --- | --- | --- | --- | --- | --- | --- | --- | --- | --- | --- |
| CC[C@H](Nc1ncnc2[nH]cnc12)c1nc2cccc(F)c2c(=O)n1-c1ccccc1 [IDELALISIB] | > 30 µM (inactive) | > 30 µM (inactive) | > 30 µM (inactive) | > 30 µM (inactive) | > 30 µM (inactive) | > 30 µM (inactive) | > 30 µM (inactive) | > 30 µM (inactive) | > 30 µM (inactive) | > 30 µM (inactive) |
| COC(=O)[C@@]1(O)C[C@H]2O[C@]1(C)n1c3ccccc3c3c4c(c5c6ccccc6n2c5c31)C(=O)NC4 [K-252A] | > 30 µM (inactive) | > 30 µM (inactive) | > 30 µM (inactive) | > 30 µM (inactive) | 2.03 µM (active) | > 30 µM (inactive) | > 30 µM (inactive) | 0.029 µM (active) | 0.287 µM (active) | > 30 µM (inactive) |
| COc1cc2nccc(Oc3ccc(NC(=O)NC4CC4)c(Cl)c3)c2cc1C(N)=O [LENVATINIB] | > 30 µM (inactive) | 0.218 µM (active) | > 30 µM (inactive) | > 30 µM (inactive) | 2.91 µM (active) | 0.173 µM | > 30 µM (inactive) | > 30 µM (inactive) | > 30 µM (inactive) | > 30 µM (inactive) |
| Cc1c(F)cc(C(=O)NC2CC2)cc1-c1ccc(C(=O)NCC(C)(C)C)cn1 [LOSMAPIMOD] | > 30 µM (inactive) | > 30 µM (inactive) | > 30 µM (inactive) | > 30 µM (inactive) | > 30 µM (inactive) | > 30 µM (inactive) | > 30 µM (inactive) | > 30 µM (inactive) | > 30 µM (inactive) | > 30 µM (inactive) |
| C1=C/COCc2cc(ccc2OCCN2CCCC2)Nc2nccc(n2)-c2cccc(c2)COC/1 [PACRITINIB] | > 30 µM (inactive) | > 30 µM (inactive) | 6.54 µM (active) | > 30 µM (inactive) | > 30 µM (inactive) | > 30 µM (inactive) | > 30 µM (inactive) | > 30 µM (inactive) | 0.888 µM (active) | > 30 µM (inactive) |
| Cc1ccc(-n2nc(C(C)(C)C)cc2NC(=O)NCc2cc(F)ccc2Oc2ccc3c(cnn3CCO)c2)cc1 [PEXMETINIB] | > 30 µM (inactive) | 1.14 µM (active) | > 30 µM (inactive) | > 30 µM (inactive) | > 30 µM (inactive) | > 30 µM (inactive) | > 30 µM (inactive) | > 30 µM (inactive) | 1.66 µM (active) | > 30 µM (inactive) |
| C=CC(=O)N1CCC(Oc2cc3c(Nc4ccc(Cl)c(Cl)c4F)ncnc3cc2OC)CC1 [POZIOTINIB] | > 30 µM (inactive) | > 30 µM (inactive) | > 30 µM (inactive) | > 30 µM (inactive) | > 30 µM (inactive) | > 30 µM (inactive) | > 30 µM (inactive) | > 30 µM (inactive) | 1.68 µM (active) | > 30 µM (inactive) |
| CNC(=O)c1cc(Oc2ccc(NC(=O)Nc3ccc(Cl)c(C(F)(F)F)c3)c(F)c2)ccn1 [REGORAFENIB] | > 30 µM (inactive) | 0.421 µM (active) | > 30 µM (inactive) | 0.616 µM (active) | > 30 µM (inactive) | > 30 µM (inactive) | > 30 µM (inactive) | > 30 µM (inactive) | > 30 µM (inactive) | > 30 µM (inactive) |
| CN(C)C(=O)c1cc2cnc(Nc3ccc(N4CCNCC4)cn3)nc2n1C1CCCC1 [RIBOCICLIB] | > 30 µM (inactive) | > 30 µM (inactive) | > 30 µM (inactive) | > 30 µM (inactive) | > 30 µM (inactive) | > 30 µM (inactive) | > 30 µM (inactive) | > 30 µM (inactive) | > 30 µM (inactive) | > 30 µM (inactive) |
